The text below walks through data of patent publication US7452687B2 (Asahi Kasei Pharma Corporation, priority 2002, dated 2008).

Series [1] deals with myo-inositol dehydrogenase derived from the strain F.sp.671. As to the kind of experiment: Relative activity assay (initial velocity with each coenzyme or substrate). The format is biochemical, Flavobaterium sp. 671. The following applies: for Relative activity ratio for each coenzyme used: substrate 20 mM myo-inositol, coenzyme 2 mM, 100 mM glycine buffer pH 10.0, 37° C., NAD as 100%; for Substrate specificity (enzyme activity for each substrate): coenzyme NAD, substrate 20 mM, pH 10.0, 37° C., initial velocity to myo-inositol as 100%. The protocol:
The relative activities were determined with the coenzyme changed according to the following method. Relative Activity Assay <Composition of Reaction Solution> • Buffer: 100 mM glycine buffer (pH 10.0) • Substrate: 20 mM myo-inositol (Sigma, Co., Ltd.) • Coenzyme: 2 mM (NAD, thio-NAD, NADP, thio NADP; Oriental Yeast Co., Ltd.) One ml of the above reaction solution is added to a quartz cell. Then, the quartz cell is placed in a spectrophotometer adjusted at a temperature of 37° C. The cell is incubated for 5 minutes or more and then 20 μl of an enzyme solution of about 1.0 U/ml is added thereto and mixed. The initial velocity is obtained from an absorbance change per minute at a wavelength peculiar to each reduced coenzyme. The initial velocity obtained with each coenzyme is compared with the initial velocity (100%) obtained using NAD as a coenzyme to provide the relative activity. According to the relative activity assay described above, the measurement was performed using the same concentration of D-chiro-inositol, D-mannose, D-fructose, D-galactose, mannitol, epi-inositol, or scyllo-inositol in place of the substrate in the reaction solution. […] The substrates used include D-mannose, D-fructose, D-galactose, mannitol, D-chiro-inositol (as above: Wako Pure Chemical Industries, Ltd.), myo-inositol, epi-inositol, and scyllo-inositol (as above: Sigma, Co., Ltd.). Following the relative activity assay described above, the measurement was performed using each of 100 mM tris buffer (pH 7.0-9.0) and 100 mM glycine buffer (pH 9.0-11.0) in place of 100 mM of pH 10.0 glycine buffer in the reaction solution. […] Using the relative activity assay described above, the concentration of myo-inositol and the concentrations of NAD and thio-NAD were changed to determine Km values respectively. Using the activity assay described above, the substrate concentration was changed to calculate the Km value.

The subject of series [2] is myo-inositol dehydrogenase. As to the kind of experiment: Study on buffers in reagents for myo-inositol quantitative determination (acceleration stability test of R-2 reagent). Particulars: 100 mM buffer pH 8.8; R-2 stored at 30° C. for 20 days, tested on 7th, 12th, 20th days.
Series [3] relates to myo-inositol dehydrogenase. The following applies: pH 8.8.

“Also recorded” adds a separate entry of the source. Like-named read-outs stand apart in the source and are kept apart here.

As to `NC(=S)c1ccc[n+]([C@@H]2O[C@H](COP(=O)([O-])OP(=O)(O)OC[C@H]3O[C@@H](n4cnc5c(N)ncnc54)[C@H](OP(=O)(O)O)[C@@H]3O)[C@@H](O)[C@H]2O)c1` [Thio-NADP, thio-nicotinamide adenine dinucleotide phosphate], the “Relative activity ratio for each coenzyme used” value (from here on “Relative activity ratio”) in series [1] is 0%.
Take `O=C(O)CN(CCO)CCO` [Bicine, N,N-Bis(hydroxyethyl)glycine]: the “Stability of sensitivity of R-2 reagent by buffer, in comparison to the standard solution” value (from here on “Stability of sensitivity of R-2 reagent”) in series [2] is “stable sensitivity; also recorded: most stable sensitivity”.
On to `O=C(CO)[C@@H](O)[C@H](O)[C@H](O)CO` [Fructose, D-fructose], for which the “Substrate specificity (enzyme activity for each substrate)” value (“Substrate specificity” below) in series [1] is “less than 1%”.
Same read-out and setting: next, `O[C@H]1[C@H](O)[C@@H](O)[C@H](O)[C@@H](O)[C@@H]1O` [scyllo-Inositol, scyllo-inositol]: “less than 1%”.
For the molecule `O=C(O)CNC(CO)(CO)CO` [Tricine, N-Tris(hydroxymethyl)methylglycine], the “Stability of sensitivity of R-2 reagent” value in series [2] is on record as “stable sensitivity”.
Regarding Tris(hydroxymethyl)aminomethane, the “Stability of sensitivity of R-2 reagent” value in series [3] is recorded as “stable sensitivity”.
With `O[C@H]1[C@H](O)[C@@H](O)[C@H](O)[C@@H](O)[C@H]1O` [myo-Inositol, myo-inositol], the “Substrate specificity” value in series [1] was found to be 100%. The Km – broadly, the concentration of substrate that gives half-maximal velocity – in series [1] (substrate concentration changed, read-out: Km value for substrate) was 1.7 ± 0.2 mM.
For the molecule `NC(=S)c1ccc[n+]([C@@H]2O[C@H](COP(=O)([O-])OP(=O)(O)OC[C@H]3O[C@@H](n4cnc5c(N)ncnc54)[C@H](O)[C@@H]3O)[C@@H](O)[C@H]2O)c1` [Thio-NAD, thio-nicotinamide adenine dinucleotide], the Michaelis constant (Km) in series [1] (coenzyme concentration changed, read-out: Km value for coenzyme) is 4.5 ± 1 mM. For the same molecule, the “Relative activity ratio” value in series [1] is listed as 29%.
`OC[C@@H](O)[C@@H](O)[C@H](O)[C@H](O)CO` [Mannitol, mannitol]: the “Substrate specificity” value in series [1] is on record as 0%.
Consider `OC1C(O)C(O)C(O)C(O)C1O` [chiro-Inositol, D-chiro-inositol], for which the “Substrate specificity” value in series [1] came to 18%.
Still for that read-out and setting: next, `O=C[C@H](O)[C@@H](O)[C@@H](O)[C@H](O)CO` [Galactose, D-galactose]: “less than 1%”; `OC1C(O)C(O)C(O)C(O)C1O` (stereo not drawn) [epi-Inositol, epi-inositol]: 2%.
For “nicotinamide adenine dinucleotide phosphate [NADP]”, in series [1], the “Relative activity ratio” value is 8%.
